# Measured values as given in publication PMC7297817, “Pharmacological Characterization of a Betaine/GABA Transporter 1 (BGT1) Inhibitor Displaying an Unusual Biphasic Inhibition Profile and Anti-seizure Effects” (Neurochemical Research, 2020).
# Entries after “also recorded” stand apart in the source; their conditions may differ.
# Key:
# AGS Frings mice = assay: Audiogenic induced seizure test; type: in vivo, mouse
# From the text: Male audiogenic-susceptible (AGS) Frings mice were obtained from an in-house breeding facility at the University of Utah (Salt Lake City, UT, USA). Male CF-1 mice for the maximal electroshock (MES) test and the subcutaneous pentylenetetrazol (s.c.PTZ) seizure threshold test were purchased from Charles River (Kingston, WA, USA). All mice were housed in a temperature, humidity, and light (on at 6:00 AM) controlled facility at the University of Utah with access to ad libitum food and water except during testing. All procedures were carried out at the University of Utah in concordance with the National Institutes of Health Guidelines for the Care and Use of Laboratory Animals and under approval from the University of Utah’s Institutional Animal Care and Use Committee. The mice were euthanized in accordance with Public Health Service policies on the humane care of laboratory animals. […] The seizures were induced as previously described. In brief, Frings mice were placed in a Plexiglas cylinder (diameter 15 cm, height 18 cm) connected to an audio transducer and exposed to a sound stimulus of 110 decibel (11 kHz) for a duration of 20 s. […] Probit analysis was used to analyse the efficacy and tolerability results obtained from the dose–response studies and to calculate the median effective (ED50) dose, the median toxic dose (TD50), and the 95% confidence interval.
# 5-HT2B = target: T1, 5-HT2B (Homo sapiens, UniProt P41595); assay: NIMH PDSP radioligand binding, 5-HT2B; conditions: radioligand [3H]LSD
# T1 construct: NIMH PDSP (screening service)
# 5-HT1A = target: T2, 5-HT1A (Homo sapiens, UniProt P08908); assay: NIMH PDSP radioligand binding, 5-HT1A; conditions: radioligand [3H]8-OH-PDAT, n=4
# T2 construct: purchased NIMH Psychoactive Drug Screening Program (PDSP)
# hGAT3 L314Q = target: T3, hGAT3 L314Q (Homo sapiens, UniProt P48066, L314Q); assay: [3H]GABA uptake at hGAT3 L314Q mutant transiently expressed in tsA201 cells; type: cell-based; conditions: 30 nM [3H]GABA, 3 min
# T3 construct: expressed in transfected cells; host or cells: tsA201 (transient)
# Procedure: (§1) The HEK-293 and Flp-In CHO cell lines stably expressing mouse (m) and human (h) GATs, respectively, have been described previously and were cultured accordingly. The tsA201 cell line was used for transient expression while the MDCK II cell line express BGT1 endogenously. Both cell lines were cultured as described. tsA201 cells were transfected with DNA constructs (8 μg per 10 cm dish if not otherwise mentioned) using 40 μL PolyFect transfection reagent according to the manufacturer’s protocol (Qiagen, Venlo, Netherlands). The DNA constructs encoding hBGT1, hGAT1-3 [36], the mutated constructs hBGT1 Q299 and hGAT3 L314Q described previously, and hBGT Y453A were synthesized and sequence validated by Genscript (NJ, USA).
# (§2) The [^3H]GABA competition uptake assay was performed as previously described. A minor change, however, was introduced for uptake in MDCK II cells, in which 100 nM [^3H]GABA was used for a 15 min incubation period at 37 °C instead of 30 nM [^3H]GABA and 3 min incubation. Studies related to the inhibition curves with GABA and BPDBA at hBGT1 were obtained both with and without the presence of 10 μM ATP during the [^3H]GABA uptake assay.
# (§3) The [^3H]GABA uptake data was normalized to the percentage of total uptake in the individual experiments in the presence of the lowest compound concentration or no compound present. […]
# GABAA rat brain = assay: NIMH PDSP radioligand binding, GABAA rat brain; conditions: 10 μM; radioligand [3H]muscimol; n=4
# Procedure: IC50 values in μM (Ki μM)^a. The targets in bold were inhibited by >35% at 10 μM.
# 5-HT6 = target: T4, 5-HT6 (Homo sapiens, UniProt P50406); assay: NIMH PDSP radioligand binding, 5-HT6; conditions: radioligand [3H]LSD, n=4
# T4 construct: NIMH PDSP (screening service)
# hGAT1 = target: T5, hGAT1 (Homo sapiens, UniProt P30531); assay: [3H]GABA uptake at hGAT1 stably expressed in CHO cells; type: cell-based; conditions: for IC50: CHO
# T5 construct: expressed in transfected cells
# Procedure: as §1, §2
# The [^3H]GABA uptake data was normalized to the percentage of total uptake in the individual experiments in the presence of the lowest compound concentration or no compound present. Data presented is the pooled data of at least three independent experiments with three technical replicates. Concentration–response curves (CRCs) were fitted with GraphPad Prism (version 8.2.1, Yosemite, GraphPad Software, San Diego, CA, USA) by non-linear regression to the sigmoidal concentration response model: Y=Bottom+(Top-Bottom)/1+10^LogIC50-X∗nH where Top is the Top plateau, Bottom is the Bottom plateau, X is the logarithm of the concentration of the compound, LogIC50 is the concentration giving a response halfway between Top and Bottom,and nH is the Hill slope.
# The best fit for CRCs obtained with the [^3H]GABA uptake assay was identified by the extra-sum-of-squares F test (for convenience referred to as F test).
# Alpha2B = target: T6, Alpha2B (Homo sapiens, UniProt P18089); assay: NIMH PDSP radioligand binding, Alpha2B; conditions: radioligand [3H]rauwolscine, n=4
# T6 construct: purchased NIMH Psychoactive Drug Screening Program (PDSP)
# 5-HT2A = target: T7, 5-HT2A (Homo sapiens, UniProt P28223); assay: NIMH PDSP radioligand binding, 5-HT2A; conditions: radioligand [3H]ketanserin, n=4
# T7 construct: purchased NIMH Psychoactive Drug Screening Program (PDSP)
# hBGT1 Y453A = target: T8, hBGT1 Y453A (Homo sapiens, UniProt P48065, Y453A); assay: [3H]GABA uptake at hBGT1 Y453A mutant in tsA201 cells; type: cell-based; conditions: data not shown
# T8 construct: host or cells: tsA201 (transient)
# Procedure: as §1, §2, §3
# 5-HT7 = target: T9, 5-HT7 (Homo sapiens, UniProt P34969); assay: NIMH PDSP radioligand binding, 5-HT7; conditions: radioligand [3H]LSD, n=4
# T9 construct: purchased NIMH Psychoactive Drug Screening Program (PDSP)
# T9 sequence (P34969 whole entry): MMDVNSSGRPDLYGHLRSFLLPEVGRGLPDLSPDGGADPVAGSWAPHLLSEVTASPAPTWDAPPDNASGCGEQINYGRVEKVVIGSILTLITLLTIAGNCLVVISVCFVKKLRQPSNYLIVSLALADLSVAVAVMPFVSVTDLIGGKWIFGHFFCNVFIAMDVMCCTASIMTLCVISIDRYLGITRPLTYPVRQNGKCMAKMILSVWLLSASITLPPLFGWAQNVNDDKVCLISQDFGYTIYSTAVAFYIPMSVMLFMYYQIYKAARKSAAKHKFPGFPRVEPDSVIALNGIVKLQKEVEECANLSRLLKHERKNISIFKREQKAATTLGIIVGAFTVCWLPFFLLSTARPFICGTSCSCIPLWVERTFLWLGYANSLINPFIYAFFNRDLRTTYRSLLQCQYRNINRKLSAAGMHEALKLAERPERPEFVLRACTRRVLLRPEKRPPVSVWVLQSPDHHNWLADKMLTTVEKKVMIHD
# T5 sequence (P30531 whole entry): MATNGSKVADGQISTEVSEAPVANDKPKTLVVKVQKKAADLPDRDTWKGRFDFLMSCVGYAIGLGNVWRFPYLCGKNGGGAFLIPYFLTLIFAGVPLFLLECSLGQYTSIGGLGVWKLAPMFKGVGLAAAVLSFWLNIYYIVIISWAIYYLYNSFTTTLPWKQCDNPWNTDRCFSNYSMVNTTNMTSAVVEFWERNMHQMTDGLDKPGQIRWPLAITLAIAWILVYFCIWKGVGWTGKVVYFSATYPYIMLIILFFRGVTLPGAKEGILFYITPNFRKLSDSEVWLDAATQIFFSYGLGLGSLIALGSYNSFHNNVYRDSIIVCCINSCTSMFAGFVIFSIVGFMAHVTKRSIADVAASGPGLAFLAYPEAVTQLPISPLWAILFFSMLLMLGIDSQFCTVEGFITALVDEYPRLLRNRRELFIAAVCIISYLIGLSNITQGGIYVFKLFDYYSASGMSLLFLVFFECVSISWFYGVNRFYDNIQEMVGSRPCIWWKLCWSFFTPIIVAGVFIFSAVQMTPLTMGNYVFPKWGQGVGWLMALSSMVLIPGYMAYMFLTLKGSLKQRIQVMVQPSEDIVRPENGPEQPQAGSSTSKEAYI
# T1 sequence (P41595 whole entry, species assumed): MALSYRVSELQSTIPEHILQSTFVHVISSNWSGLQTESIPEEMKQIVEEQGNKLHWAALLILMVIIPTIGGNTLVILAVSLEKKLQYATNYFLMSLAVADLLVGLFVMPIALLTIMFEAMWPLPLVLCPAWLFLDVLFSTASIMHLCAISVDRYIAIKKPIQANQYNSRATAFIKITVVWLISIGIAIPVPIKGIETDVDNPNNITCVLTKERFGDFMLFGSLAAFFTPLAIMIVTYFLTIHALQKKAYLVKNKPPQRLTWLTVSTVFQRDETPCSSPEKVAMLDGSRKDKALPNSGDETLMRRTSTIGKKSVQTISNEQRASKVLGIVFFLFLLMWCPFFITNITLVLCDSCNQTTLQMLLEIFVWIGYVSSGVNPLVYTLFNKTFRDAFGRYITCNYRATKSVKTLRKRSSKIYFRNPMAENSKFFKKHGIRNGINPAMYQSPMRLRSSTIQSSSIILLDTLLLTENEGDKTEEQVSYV
# T3 sequence (P48066 whole entry L314Q): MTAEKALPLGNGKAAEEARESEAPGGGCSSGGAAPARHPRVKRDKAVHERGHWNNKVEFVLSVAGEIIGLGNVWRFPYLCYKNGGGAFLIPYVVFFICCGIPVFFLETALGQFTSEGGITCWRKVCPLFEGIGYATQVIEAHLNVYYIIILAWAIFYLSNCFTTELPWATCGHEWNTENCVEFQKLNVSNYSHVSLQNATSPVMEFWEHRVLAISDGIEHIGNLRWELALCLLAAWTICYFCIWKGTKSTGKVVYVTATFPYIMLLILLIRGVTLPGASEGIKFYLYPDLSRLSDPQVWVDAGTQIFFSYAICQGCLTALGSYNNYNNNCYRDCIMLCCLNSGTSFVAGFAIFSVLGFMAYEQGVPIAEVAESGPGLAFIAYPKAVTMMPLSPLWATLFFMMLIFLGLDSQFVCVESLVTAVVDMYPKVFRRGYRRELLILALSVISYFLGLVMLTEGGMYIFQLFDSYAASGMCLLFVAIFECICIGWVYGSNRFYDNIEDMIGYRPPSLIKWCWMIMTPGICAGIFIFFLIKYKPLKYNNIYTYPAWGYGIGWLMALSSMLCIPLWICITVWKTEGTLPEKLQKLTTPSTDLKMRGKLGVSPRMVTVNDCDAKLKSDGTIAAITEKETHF
# T6 sequence (P18089 whole entry): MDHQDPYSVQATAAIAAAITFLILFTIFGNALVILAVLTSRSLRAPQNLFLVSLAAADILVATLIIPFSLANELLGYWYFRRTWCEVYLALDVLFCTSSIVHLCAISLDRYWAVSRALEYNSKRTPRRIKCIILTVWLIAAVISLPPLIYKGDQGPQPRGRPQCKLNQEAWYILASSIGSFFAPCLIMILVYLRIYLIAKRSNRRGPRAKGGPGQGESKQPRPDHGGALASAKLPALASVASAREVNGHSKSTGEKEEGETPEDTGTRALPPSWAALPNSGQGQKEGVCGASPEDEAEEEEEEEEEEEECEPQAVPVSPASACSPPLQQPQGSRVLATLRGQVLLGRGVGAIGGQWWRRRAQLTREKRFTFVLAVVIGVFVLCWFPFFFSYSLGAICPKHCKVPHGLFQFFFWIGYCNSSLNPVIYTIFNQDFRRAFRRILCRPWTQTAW
# T7 sequence (P28223 whole entry): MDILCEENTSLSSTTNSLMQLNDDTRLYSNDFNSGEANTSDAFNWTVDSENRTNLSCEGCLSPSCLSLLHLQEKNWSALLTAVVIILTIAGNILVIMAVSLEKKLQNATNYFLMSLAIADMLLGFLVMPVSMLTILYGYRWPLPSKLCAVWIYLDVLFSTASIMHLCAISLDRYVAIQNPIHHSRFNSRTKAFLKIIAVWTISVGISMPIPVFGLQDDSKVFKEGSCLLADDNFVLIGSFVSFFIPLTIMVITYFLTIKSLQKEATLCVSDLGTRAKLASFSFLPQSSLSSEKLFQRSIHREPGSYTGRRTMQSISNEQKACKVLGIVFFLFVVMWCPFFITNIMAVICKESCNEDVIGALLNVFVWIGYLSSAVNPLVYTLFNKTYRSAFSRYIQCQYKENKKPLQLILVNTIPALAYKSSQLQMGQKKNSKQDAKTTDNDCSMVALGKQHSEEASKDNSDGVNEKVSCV
# T2 sequence (P08908 whole entry): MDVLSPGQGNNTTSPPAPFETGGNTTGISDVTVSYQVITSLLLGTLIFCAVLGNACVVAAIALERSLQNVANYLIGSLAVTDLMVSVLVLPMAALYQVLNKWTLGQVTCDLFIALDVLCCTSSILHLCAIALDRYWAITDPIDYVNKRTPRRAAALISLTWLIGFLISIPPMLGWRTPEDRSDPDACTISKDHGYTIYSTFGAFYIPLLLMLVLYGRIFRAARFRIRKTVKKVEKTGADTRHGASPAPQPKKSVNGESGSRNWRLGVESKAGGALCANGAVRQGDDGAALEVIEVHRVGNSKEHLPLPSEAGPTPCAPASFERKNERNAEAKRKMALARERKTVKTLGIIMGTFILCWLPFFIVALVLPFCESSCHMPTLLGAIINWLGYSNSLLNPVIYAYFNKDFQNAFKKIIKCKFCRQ
# T4 sequence (P50406 whole entry, species assumed): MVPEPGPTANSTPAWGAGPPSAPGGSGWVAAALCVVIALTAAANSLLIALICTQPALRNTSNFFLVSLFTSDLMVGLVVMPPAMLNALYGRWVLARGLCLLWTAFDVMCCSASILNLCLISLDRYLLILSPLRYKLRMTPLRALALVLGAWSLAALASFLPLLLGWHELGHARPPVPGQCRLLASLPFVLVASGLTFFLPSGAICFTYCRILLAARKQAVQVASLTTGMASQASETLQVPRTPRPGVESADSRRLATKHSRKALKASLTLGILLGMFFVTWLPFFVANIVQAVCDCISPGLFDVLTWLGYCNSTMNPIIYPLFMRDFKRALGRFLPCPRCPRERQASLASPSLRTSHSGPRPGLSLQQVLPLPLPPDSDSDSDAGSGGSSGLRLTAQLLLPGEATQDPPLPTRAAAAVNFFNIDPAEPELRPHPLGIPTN
# T8 sequence (P48065 whole entry Y453A): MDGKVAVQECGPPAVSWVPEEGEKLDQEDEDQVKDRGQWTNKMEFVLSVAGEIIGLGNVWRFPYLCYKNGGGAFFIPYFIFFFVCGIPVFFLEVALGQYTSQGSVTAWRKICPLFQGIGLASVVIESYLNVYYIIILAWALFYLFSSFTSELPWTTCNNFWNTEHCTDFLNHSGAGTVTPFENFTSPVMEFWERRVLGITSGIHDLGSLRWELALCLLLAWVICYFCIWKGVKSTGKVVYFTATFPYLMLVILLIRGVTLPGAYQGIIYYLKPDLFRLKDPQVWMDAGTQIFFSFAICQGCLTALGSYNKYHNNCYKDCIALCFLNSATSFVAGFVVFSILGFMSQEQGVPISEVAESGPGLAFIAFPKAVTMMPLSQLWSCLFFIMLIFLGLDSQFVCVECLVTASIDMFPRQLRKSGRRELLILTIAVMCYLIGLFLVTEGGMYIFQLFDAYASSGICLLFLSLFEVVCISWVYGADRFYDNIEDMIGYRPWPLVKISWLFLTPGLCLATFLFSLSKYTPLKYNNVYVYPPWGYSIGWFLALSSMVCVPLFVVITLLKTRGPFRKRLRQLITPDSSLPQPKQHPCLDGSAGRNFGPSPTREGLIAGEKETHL
smiles,measurement,setting,value
"Cc1ccsc1C(=CCCN(C)[C@H]1CCCC[C@H]1C(=O)O)c1sccc1C [SBV2-114, (1R,2S)-2-((4,4-bis(3-methylthiophen-2-yl)but-3-en-yl)(methyl)amino)cyclohexanecarboxylic acid]",#Protected/#Tested,"AGS Frings mice; 50 mg/kg i.p., 15 min",3/4
same,#Protected/#Tested,"AGS Frings mice; 50 mg/kg i.p., 30 min",2/4
same,#Protected/#Tested,"AGS Frings mice; 50 mg/kg i.p., 60 min",1/4
same,#Protected/#Tested,"AGS Frings mice; 50 mg/kg i.p., 120 min",0/4
same,#Protected/#Tested,"AGS Frings mice; 120 mg/kg i.p., 30 min",4/4
same,#Protected/#Tested,"AGS Frings mice; 120 mg/kg i.p., 60 min",3/4
same,#Protected/#Tested,"AGS Frings mice; 120 mg/kg i.p., 120 min",2/4
same,#Protected/#Tested,"AGS Frings mice; 120 mg/kg i.p., 240 min",1/4
same,brain permeance,AGS Frings mice; concluded from seizure protection after i.p. dosing,brain-permeant
same,time-to peak (TPE),"AGS Frings mice; i.p., Frings mice, a faster TPE cannot be excluded",15 min
same,inhibition at 10 µM,"5-HT2B; 10 μM, n=4",96.8%
same,Ki,5-HT2B; full curve,0.42 µM
same,inhibition at 10 µM,5-HT1A,-7.9%
same,inhibition profile and activity at hGAT3 L314Q,hGAT3 L314Q,activity in hGAT3 L314Q similar to hBGT1
same,% inhibition,GABAA rat brain,-1.5%
same,inhibition at 10 µM,5-HT6,50%
same,IC50,"hGAT1; ambiguous fit, N=2",566 µM
same,IC50,"hGAT1; monophasic fit, N=1",476 µM
same,Fit,hGAT1; preferred model per experiment,Ambiguous; also recorded: Monophasic
same,inhibition at 10 µM,Alpha2B,24.9%
same,inhibition at 10 µM,5-HT2A,20%
same,activity at hBGT1 Y453A,hBGT1 Y453A,did not show the expected decrease in activity
same,inhibition at 10 µM,5-HT7,14.1%
